{
  "source": "paper PMC10634346",
  "about": "(Cancer Research Communications, 2023)",
  "key": {"[1]": {"test_system": "Myc and Mcl-1 protein in SU-DHL-4 cells", "experiment": "In vitro washout, Myc and Mcl-1 protein Western blot, SU-DHL-4", "format": "cell-based, human", "conditions": "0.25 µmol/L enitociclib, atuveciclib (1 µmol/L)", "procedure": "Evaluation of the pharmacodynamic extent and duration of CDK9 inhibition were performed in vitro using the human DLBCL cell lines SU-DHL-4 and SU-DHL-10, harboring MYC amplification and MYC overexpression with P57T mutation, respectively. Cells were seeded 18 hours prior to treatment for 4 hours with one of three CDK9 inhibitors, enitociclib (0.25 and1 µmol/L), atuveciclib (1 µmol/L) or KB-0742 (1 µmol/L), cells were washed, and incubation continued until 48 hours posttreatment. Samples were collected before treatment (−4), immediately after treatment (0), and at 1, 2, 4, 8, 12, 16, 24, and 48 hours after washout for RNA sequencing (RNA-seq), qPCR, and Western blotting analyses.\nThe levels of p-Ser2, p-Ser5 and total RNA polymerase II, Myc, Mcl-1, cleaved PARP (cPARP), and cleaved Caspase 3 were assessed by Western blotting and quantified near-infrared detection and background corrected quantification of fluorescence intensity on an Odyssey Imaging System with IRDye secondary antibodies (LI-COR Biosciences). For quantification, the protein levels were normalized to GAPDH or HSP90, expressed as a ratio to DMSO or vehicle control at matched timepoints. The normalized relative protein levels of p-Ser2 were used for a treatment effect comparison by performing an ANOVA using PROC MIXED in SAS. The ANOVA model included treatment, timepoints and their interactions as fixed effects. […]"}, "[2]": {"test_system": "p-Ser2 RNA polymerase II in SU-DHL-10 tumors", "experiment": "Pharmacodynamics in SU-DHL-10 xenograft tumors, p-Ser2", "format": "in vivo, C.B-17 SCID mice", "procedure": "(§1) The levels of p-Ser2, p-Ser5 and total RNA polymerase II, Myc, Mcl-1, cleaved PARP (cPARP), and cleaved Caspase 3 were assessed by Western blotting and quantified near-infrared detection and background corrected quantification of fluorescence intensity on an Odyssey Imaging System with IRDye secondary antibodies (LI-COR Biosciences). For quantification, the protein levels were normalized to GAPDH or HSP90, expressed as a ratio to DMSO or vehicle control at matched timepoints. The normalized relative protein levels of p-Ser2 were used for a treatment effect comparison by performing an ANOVA using PROC MIXED in SAS. The ANOVA model included treatment, timepoints and their interactions as fixed effects. The least square means (LSM), differences between the LSMs and associated P values were generated. The following primary antibodies were used: Rpb1 NTD (D8L4Y) rabbit antibody [Cell Signaling Technology (CST), #14958], anti-RNA polymerase II subunit B1 (phospho CTD Ser-2, clone 3E10) rat antibody (Merck, 04-1571-I), recombinant anti-c-MYC rabbit antibody (Y69; Abcam, #ab32072), MCL1 (D5V5L) rabbit antibody (CST, #39224), cleaved-PARP (Asp214) (E2T4K) mouse antibody (CST, #32563), HSP90 (C45G5) rabbit antibody (CST, #4877), and GAPDH mouse antibody (Zytomed Systems, #ZYT-RGM2-6C5). […]"}, "[3]": {"test_system": "Myc protein in SU-DHL-10 tumors", "experiment": "Pharmacodynamics in SU-DHL-10 xenograft tumors, Myc protein", "format": "in vivo, C.B-17 SCID mice", "conditions": "single dose; within 4 to 8 hours postdose", "procedure": "as §1"}, "[4]": {"test_system": "MCL1 mRNA in whole blood", "experiment": "MCL1 mRNA in whole blood of patients (RNA-seq, PK/PD modeling)", "format": "in vivo, human", "conditions": "for Downregulation of MCL1 mRNA: C1D15", "procedure": "Total RNA was extracted from blood of patients and cell lines using RNeasy Plus Mini Kit (QIAGEN, #74136) and cDNA prepared with the Maxima First Strand cDNA Synthesis Kit for RT-PCR (Thermo Fisher Scientific, K1642) according to manufacturer's instructions. The integrity of purified total RNA was evaluated using an Agilent 2100 Bioanalyzer system and RNA 6000 Nano Kit (Agilent, #5067-1511). Differential gene expression analysis was performed (Fios Genomics) from RNA-seq data (Discovery Life Sciences). MYC and MCL1 mRNA levels were measured by qPCR in vitro and in vivo, using a Taqman qPCR system (Thermo Fisher Scientific), TaqMan Fast Universal PCR Master Mix (2X) no AmpErase (#4352042) and TaqMan probes for MYC (Hs00153408_m1) and MCL1 (Hs03043899_m1). RNA-seq data were analyzed using DESeq2 ([35]).\nFifteen patients with refractory or relapsed DH-DLBCL or other MYC+ NHL were treated with enitociclib (30 mg, 21-day cycle, once weekly x3) as a 30-minute intravenous infusion on study days 1, 8, and 15 (NCT02635672). Longitudinal gene expression levels were analyzed by RNA-seq, and enitociclib plasma concentrations were measured using LC/MS-MS. The clinical study protocol was approved by the Institutional Review Board of participating institutions and complied with the Declaration of Helsinki, current Good Clinical Practice guidelines, and local laws and regulations. Written informed consent was provided by all participants prior to the initiation of any study-specific procedure.\nAll pharmacokinetic parameters were calculated by noncompartmental methods as described previously ([36]) using WinNonlin v5.3 (Certara LP). Pharmacokinetic/pharmacodynamic modeling was performed using SAAM II v2.3.2 (The Epsilon Group). Pooled pharmacokinetic data from all patients [n = 15 for single dose, cycle 1 day 1 (C1D1) and n = 11 for multiple doses, cycle 1 day 15 (C1D15)] were characterized using a one-compartment model with intravenous dosing. Subsequently, the pharmacokinetic/pharmacodynamic relationship of enitociclib plasma concentrations to MCL1 and MYC mRNA change was characterized using an indirect response model ([37]) on pooled biomarker data where enitociclib concentrations inhibit the formation of MCL1 or MYC mRNA as described by the following equation: […]\nPD is defined as MCL1 or MYC mRNA expression level as a percentage from baseline, t (h) is the time, kin (1/h) is the formation rate of MCL1 or MYC, IC50 (µg/L) is the enitociclib concentration where there is 50% inhibition of PD, kout (h^−1) is the rate constant describing the loss of PD, and n is the hill coefficient. At homeostasis, kin = kout (PD); therefore, kout was replaced by kin/(PD)initial where (PD)initial is equal to 100%. Estimates of pharmacokinetic and pharmacodynamic parameters from pharmacokinetic/pharmacodynamic modeling of pooled data are presented as the estimate followed by CV in parentheses.\nRNA-seq data generated from the analysis of two cell lines treated with the three CDK9 inhibitors was analyzed to investigate the differences in gene expression levels between various posttreatment timepoints and the pretreatment samples. Quality control assessment and exploratory data analysis by principal component analysis (PCA) were done on raw counts and on normalized count data. Normalization of RNA-seq count data was done using trimmed mean of M-values normalization and transformed with voom, resulting in log2 counts per million with associated precision weights. […] Significance values (Padj) were adjusted for multiple testing, by controlling the FDR using the Benjamini–Hochberg procedure. […] RNA-seq data generated from blood samples taken from patients before and after their first dose (C1D1) or after multiple doses, before and after their third dose (C1D15) were analyzed and normalized using the same pipeline as cell lines for comparisons."}},
  "data": [
    {"smiles": "COc1cc(F)ccc1-c1cc(Nc2cc(CS(C)(=N)=O)ccn2)ncc1F", "note": "(centres unmarked) [enitociclib]", "values": [
      {"measurement": "sustained Myc and Mcl-1 protein depletion for 48 hours (in words)", "setting": "[1]", "value": "this was achieved"},
      {"measurement": "decrease of p-Ser2 levels in tumors", "setting": "[2]; single dose 5 mg/kg, for 8 hours", "value": "greater than 50%"},
      {"measurement": "p-Ser2 in tumors (in words)", "setting": "[2]; single dose 10 and 15 mg/kg, 8 hours postdose timeframe", "value": "depletion of p-Ser2"},
      {"measurement": "reduction of Myc protein levels in tumors", "setting": "[3]", "value": 50, "unit": "%"},
      {"measurement": "maximal downregulation of MCL1 mRNA level in blood of patients postdose", "setting": "[4]; 30 mg dose", "value": 55.5, "unit": "%"},
      {"measurement": "maximal extent of MCL1 mRNA downregulation", "setting": "[4]; C1D1, 30 mg, other MYC+ NHL, range 22.5%–48.2%", "value": 44.54, "unit": "%"},
      {"measurement": "time of maximal MCL1 mRNA inhibition", "setting": "[4]; C1D1, 30 mg, patient with the transformed follicular lymphoma", "value": 8, "unit": "hours postdose"},
      {"measurement": "maximal extent of MCL1 mRNA downregulation", "setting": "[4]; C1D1, 30 mg, patients with DH-DLBCL, range 31%–52.4%", "value": 49.28, "unit": "%"},
      {"measurement": "Downregulation of MCL1 mRNA", "setting": "[4]; DH-DLBCL, range 30%–55.5%", "value": 45.81, "unit": "%"},
      {"measurement": "Downregulation of MCL1 mRNA", "setting": "[4]; other MYC+ NHL, range 0%–43.1%", "value": 18.27, "unit": "%"},
      {"measurement": "IC50", "setting": "[4]; Homo sapiens, PK/PD indirect response model, pooled patient blood data, read-out: model estimated unbound IC50 for MCL1 mRNA", "value": "61.2 to 69.1", "unit": "nM"}
    ]}
  ]
}
